Assays:
[1] = test system: brain of rat after focal cerebral ischemia
Description: Thallium is a potassium tracer and can detect changes in potassium metabolism, as occur, e.g., in brain infarcts, brain tumors, or degenerative diseases.
Shown are frontal sections in the plane of the anterior commissure (A, D) and images of the same sections (B, E).
The thallium is taken up essentially by the sodium-potassium pump and transport systems regulated by it and is thus energy-dependent. […] Scale bar in A: 500 μm, in B: 50 μm, in C: 25 μm, in D: 10 μm, in E: 25 μm and in F: 100 μm.

brain = settings: cited from earlier work
experimental animals = settings: high thallium acetate doses needed for the method; animals sacrificed 15 minutes after administration; cited from earlier work

## CCN(CC)C(=S)[S][201Tl] [Tl-DDC, thallium-201 diethyldithiocarbamate]
[1]; 15 minutes after focal cerebral ischemia (hyperacute stage), infarct core
  staining intensity (thallium) in infarct core: clearly reduced staining intensity
[1]; 15 minutes after focal cerebral ischemia, zone surrounding core vs contralateral side
  staining intensity (thallium) in zone surrounding infarct core: clearly lower than in the undamaged contralateral side
[1]; 7 days after focal cerebral ischemia (late time point)
  differences in thallium distribution ipsilateral and contralateral to the occluded vessel: less pronounced
[1]; hyperacute stage of cerebral ischemia, astrocytes
  thallium staining of astrocytes in the infarct core: intensively stained
[1]; hyperacute stage of cerebral ischemia, neurons
  thallium detection in neurons of the infarct core: cannot be detected
brain
  cerebral uptake: good cerebral uptake
  decomposition in the brain: decomposes spontaneously in the brain

## CC(=O)[O-].[Tl+] [thallium acetate]
Experimental animals
  toxicity of the thallium dose used: deadly

## technetium-99m-diethyldithiocarbamate [^99 mTc-DDC]
brain
  cerebral uptake: good cerebral uptake
  decomposition in the brain: essentially lower rate of decomposition in the brain
  retention in the brain: retained there to a lesser extent

— patent US8911705B2, “Diagnostic substance and method for the analysis of metabolism processes in the brain” (Leibniz-Institut fuer Neurobiologie Stiftung des …, priority 2005, dated 2014)
